Consider one compound from patent publication US20140335184A1, “NANOPARTICLE ASSEMBLY, PREPARATION THEREOF, AND ACTIVE MATERIAL DELIVERING COMPOSITE COMPRISING THE SAME” (priority 2012, published 2014).

A short description of the data set: Measurement of decrease in fluorescence of drug delivering composite. Type of data set: physicochemical. Particulars: measured as a function of time, FIGS. 16A and 16B. From the text:
FIGS. 16A and 16B are graphs illustrating a measurement of a decrease in a fluorescence of the drug delivering composite prepared in Example 6.
FIG. 16A is a graph illustrating the measurement of a change in fluorescence of a doxorubicin solution according to time, and FIG. 16B is a graph illustrating the measurement of changes in fluorescence of the doxorubicin solution and the drug delivering composite according to an embodiment. […] However, a reduction in fluorescence of doxorubicin alone was not observed when measured as a function of time.

`COc1cccc2c1C(=O)c1c(O)c3c(c(O)c1C2=O)C[C@@](O)(C(=O)CO)C[C@@H]3O[C@H]1C[C@H](N)[C@H](O)[C@H](C)O1` [doxorubicin]: the Change in fluorescence entry is “not observed”.
